Source: ChEMBL document CHEMBL1129166, “Design and synthesis of novel, pseudo C2 symmetric inhibitors of HIV protease” (Bioorg Med Chem Lett, 1996)

How the values were obtained:
[1] = biological target: Human immunodeficiency virus type 1 protease (Human immunodeficiency virus 1, UniProt Q72874); experiment: Compound was evaluated for the inhibition of HIV protease
[2] = biological target: Human immunodeficiency virus type 1 protease (Human immunodeficiency virus 1) (UniProt Q72874); experiment: Compound was evaluated for the inhibition of HIV protease at 0.5 uM

| SMILES | IC50 [1] [nM] | inhibition [2] [%] |
| --- | --- | --- |
| CC(C)C(NC(=O)OCc1ccccc1)C(=O)N[C@H](CC[C@@H](O)[C@H](Cc1ccccc1)NC(=O)C(NC(=O)OCc1ccccc1)C(C)C)Cc1ccccc1 (stereo not given in full) | 200 | – |
| CC(C)C(NC(=O)OCc1ccccc1)C(=O)N[C@@H](Cc1ccccc1)CC(C[C@H](Cc1ccccc1)NC(=O)C(NC(=O)OCc1ccccc1)C(C)C)[N+](=O)[O-] (stereo not given in full) | 1500 | – |
| CC(C)C(NC(=O)OCc1ccccc1)C(=O)N[C@H](CC[C@H](O)[C@H](Cc1ccccc1)NC(=O)C(NC(=O)OCc1ccccc1)C(C)C)Cc1ccccc1 (stereo not given in full) | > 1 | 62 |
| CC(C)[C@H](NC(=O)N(C)Cc1ccccn1)C(=O)N[C@@H](Cc1ccccc1)[C@H](O)[C@H](O)[C@H](Cc1ccccc1)NC(=O)[C@@H](NC(=O)N(C)Cc1ccccn1)C(C)C [A-77003] | > 1 | 57 |
| CC(C)[C@H](NC(=O)OCc1ccccc1)C(=O)N[C@@H](Cc1ccccc1)CC1(C[C@H](Cc2ccccc2)NC(=O)[C@@H](NC(=O)OCc2ccccc2)C(C)C)CCC(=O)N1 | 2700 | – |
| O=C(Nc1ccccc1C(=O)N[C@H](CC[C@H](O)[C@H](Cc1ccccc1)NC(=O)c1ccccc1NC(=O)OCc1ccccn1)Cc1ccccc1)OCc1ccccn1 | 14 | – |
| O=C(N[C@H](CC[C@H](O)[C@H](Cc1ccccc1)NC(=O)c1ccccc1NS(=O)(=O)c1ccccn1)Cc1ccccc1)c1ccccc1NS(=O)(=O)c1ccccn1 | > 3000 | – |
| CC(C)(C)OC(=O)N[C@H](CC[C@H](O)[C@H](Cc1ccccc1)NC(=O)OC(C)(C)C)Cc1ccccc1 | 380 | – |
